Where “and” joins values, the source holds several entries; their conditions need not be identical. Equal entries are not always repeated.
Key:
Assay type in all cases: biochemical
recombinant human DPP8 = target: T1, recombinant human DPP8 (Homo sapiens, UniProt Q6V1X1); test: DPP8 inhibition, fluorogenic substrate Z-Ala-Pro-AMC; settings: recombinant human DPP8
T1 construct: purchased PBS Bioscience
How it was run: (§1)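 Inhibitors are titrated in an 8-point series into the enzyme's assay buffer (DMSO no more than 0.5%). Substrate cleavage at 25 °C is followed by fluorescence, excitation 380 nm and emission 460 nm. IC50 values come from a four-variable logistic model.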

DPP4 = DPP4 (Homo sapiens, UniProt P27487); test: DPP4 inhibition, fluorogenic substrate H-Gly-Pro-AMC; parameters: purchased R&D Systems; settings: recombinant human DPP4
Sequence of DPP4 (P27487 whole entry): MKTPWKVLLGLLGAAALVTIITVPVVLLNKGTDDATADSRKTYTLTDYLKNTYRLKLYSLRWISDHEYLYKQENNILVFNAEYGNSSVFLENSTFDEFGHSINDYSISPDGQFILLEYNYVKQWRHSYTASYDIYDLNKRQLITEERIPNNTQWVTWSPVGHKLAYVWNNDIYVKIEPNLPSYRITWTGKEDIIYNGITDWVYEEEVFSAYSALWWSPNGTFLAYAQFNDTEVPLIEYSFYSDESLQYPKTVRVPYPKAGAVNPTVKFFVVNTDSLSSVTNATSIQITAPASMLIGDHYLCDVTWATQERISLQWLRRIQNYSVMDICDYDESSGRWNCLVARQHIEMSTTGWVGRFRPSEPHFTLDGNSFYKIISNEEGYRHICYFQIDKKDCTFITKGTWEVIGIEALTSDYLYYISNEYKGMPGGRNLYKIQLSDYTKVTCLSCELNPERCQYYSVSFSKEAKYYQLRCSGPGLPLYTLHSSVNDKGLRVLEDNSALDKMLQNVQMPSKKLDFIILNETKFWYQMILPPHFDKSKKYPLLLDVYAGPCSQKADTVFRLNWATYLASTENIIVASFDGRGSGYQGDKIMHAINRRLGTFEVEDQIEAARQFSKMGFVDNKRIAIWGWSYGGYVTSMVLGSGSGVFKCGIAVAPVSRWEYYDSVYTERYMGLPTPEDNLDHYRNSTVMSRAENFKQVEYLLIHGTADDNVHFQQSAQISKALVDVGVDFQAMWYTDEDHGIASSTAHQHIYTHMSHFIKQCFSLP

recombinant human PREP = target: T2, recombinant human PREP (Homo sapiens, UniProt P48147); test: PREP inhibition, fluorogenic substrate Z-Gly-Pro-AMC; settings: Inhibitory Activity (IC50, nM) PREP, recombinant human PREP
T2 construct: purchased R&D System
T2 sequence (P48147 1-710): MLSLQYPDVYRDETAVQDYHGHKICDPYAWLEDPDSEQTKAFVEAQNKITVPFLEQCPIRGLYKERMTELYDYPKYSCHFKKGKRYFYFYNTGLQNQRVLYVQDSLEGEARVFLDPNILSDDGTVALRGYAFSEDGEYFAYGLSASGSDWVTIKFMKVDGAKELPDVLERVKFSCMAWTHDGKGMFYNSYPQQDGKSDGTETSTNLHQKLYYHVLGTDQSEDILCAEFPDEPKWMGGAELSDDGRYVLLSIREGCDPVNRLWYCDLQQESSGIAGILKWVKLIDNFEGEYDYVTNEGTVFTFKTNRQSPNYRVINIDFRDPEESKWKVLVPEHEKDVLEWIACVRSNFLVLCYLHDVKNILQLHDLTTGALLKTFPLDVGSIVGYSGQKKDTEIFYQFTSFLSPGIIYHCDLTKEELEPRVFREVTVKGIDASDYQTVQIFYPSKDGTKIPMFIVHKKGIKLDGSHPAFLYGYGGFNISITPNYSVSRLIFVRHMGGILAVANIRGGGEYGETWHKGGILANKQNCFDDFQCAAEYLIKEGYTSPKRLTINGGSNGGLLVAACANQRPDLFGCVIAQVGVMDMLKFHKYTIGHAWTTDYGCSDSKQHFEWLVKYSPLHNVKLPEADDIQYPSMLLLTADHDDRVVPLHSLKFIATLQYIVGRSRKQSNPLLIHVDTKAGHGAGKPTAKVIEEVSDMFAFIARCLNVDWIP
How it was run: as §1

T1 sequence (Q6V1X1 whole entry): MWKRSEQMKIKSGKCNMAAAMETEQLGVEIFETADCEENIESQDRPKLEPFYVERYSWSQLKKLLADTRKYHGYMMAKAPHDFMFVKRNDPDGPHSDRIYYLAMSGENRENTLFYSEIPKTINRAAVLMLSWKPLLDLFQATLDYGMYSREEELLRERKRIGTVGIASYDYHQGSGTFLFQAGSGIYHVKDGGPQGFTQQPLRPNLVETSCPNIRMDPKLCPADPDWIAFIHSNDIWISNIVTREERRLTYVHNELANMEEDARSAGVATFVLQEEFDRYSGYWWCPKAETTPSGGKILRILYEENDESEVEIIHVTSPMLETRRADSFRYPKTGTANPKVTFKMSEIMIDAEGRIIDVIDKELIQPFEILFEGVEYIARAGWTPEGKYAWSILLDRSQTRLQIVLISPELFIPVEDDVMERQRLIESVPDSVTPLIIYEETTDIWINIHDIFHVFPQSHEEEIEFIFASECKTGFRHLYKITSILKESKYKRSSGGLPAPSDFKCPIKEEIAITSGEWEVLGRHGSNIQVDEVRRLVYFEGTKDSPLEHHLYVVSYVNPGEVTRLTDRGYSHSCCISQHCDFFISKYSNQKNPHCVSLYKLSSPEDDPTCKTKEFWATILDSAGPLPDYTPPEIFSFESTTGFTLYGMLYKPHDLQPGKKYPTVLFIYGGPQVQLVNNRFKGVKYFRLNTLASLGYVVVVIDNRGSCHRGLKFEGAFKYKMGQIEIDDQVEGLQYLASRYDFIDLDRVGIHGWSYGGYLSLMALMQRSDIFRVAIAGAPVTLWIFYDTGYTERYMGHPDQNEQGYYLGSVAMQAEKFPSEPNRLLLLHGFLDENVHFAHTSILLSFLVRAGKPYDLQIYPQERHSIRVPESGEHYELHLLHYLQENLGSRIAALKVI

| Structure (SMILES) | IC50 (recombinant human DPP8) [µM] | IC50 (DPP4) [µM] | IC50 (recombinant human PREP) |
| --- | --- | --- | --- |
| N#C[C@@H]1C[C@H](F)CN1C(=O)CN1CC[C@H](Nc2cccc3ncccc23)C1 [Example 228, (2S,4S)-4-fluoro-1-[2-[(3S)-3-(5-quinolylamino)pyrrolidin-1-yl]acetyl]pyrrolidine-2-carbonitrile] | 10.8 | > 100 | 4290 nM |
| N#Cc1cnc2cccc(N[C@H]3CCN(CC(=O)N4CCC[C@H]4C#N)C3)c2c1 [Example 232, 5-[[(3S)-1-[2-oxo-2-[(2S)-2-cyanopyrrolidin-1-yl]ethyl]pyrrolidin-3-yl]amino]quinoline-3-carbonitrile] | > 100 | > 10 | 13700 nM |
| COc1cnc2cccc(N[C@H]3CCN(CC(=O)N4CCC[C@H]4C#N)C3)c2c1 [Example 233, (2S)-1-[2-[(3S)-3-[(3-methoxy-5-quinolyl)amino]pyrrolidin-1-yl]acetyl]pyrrolidine-2-carbonitrile] | 28.1 | 37.8 | 11500 nM |
| N#C[C@@H]1CCCN1C(=O)CN1CC[C@H](Nc2ccc(F)c3ncccc23)C1 [Example 244, (2S)-1-[2-[(3S)-3-[(8-fluoro-5-quinolyl)amino]pyrrolidin-1-yl]acetyl]pyrrolidine-2-carbonitrile] | 32.7 | > 10 | 11100 nM |
| N#C[C@@H]1CCCN1C(=O)CN1CC[C@H](Nc2ccc(C(F)(F)F)c3ncccc23)C1 [Example 245, (2S)-1-[2-[(3S)-3-[[8-(trifluoromethyl)-5-quinolyl]amino]pyrrolidin-1-yl]acetyl]pyrrolidine-2-carbonitrile] | > 100 | > 10 | 9470 nM |
| N#Cc1ccc(N[C@H]2CCN(CC(=O)N3CCC[C@H]3C#N)C2)c2cccnc12 [Example 247, 5-[[(3S)-1-[2-oxo-2-[(2S)-2-cyanopyrrolidin-1-yl]ethyl]pyrrolidin-3-yl]amino]quinoline-8-carbonitrile] | > 100 | > 10 | > 10000 nM |
| N#C[C@@H]1C[C@H](F)CN1C(=O)CN1CC[C@H](Nc2cccc3ncc(F)cc23)C1 [Example 255, (2S,4S)-4-fluoro-1-[2-[(3S)-3-[(3-fluoro-5-quinolyl)amino]pyrrolidin-1-yl]acetyl]pyrrolidine-2-carbonitrile] | 5.1 | 2.41 | 2210 nM |
| N#C[C@@H]1C[C@H](F)CN1C(=O)CN1CC[C@H](Nc2ccc(OCc3ccccc3)c3ncccc23)C1 [Example 268, (2S,4S)-4-fluoro-1-[2-[(3S)-3-[(8-benzyloxy-5-quinolyl)amino]pyrrolidin-1-yl]acetyl]pyrrolidine-2-carbonitrile] | 1.11 | 0.574 | 3520 nM |
| N#C[C@@H]1C[C@H](F)CN1C(=O)CN1CCC(Nc2ccc(C(F)(F)F)c3ncccc23)CC1 [Example 334, (2S,4S)-4-fluoro-1-[2-[4-[[8-(trifluoromethyl)-5-quinolyl]amino]-1-piperidyl]acetyl]pyrrolidine-2-carbonitrile] |  | 7.76 | 2300 nM and 2780 nM |
| Cc1ccc2nccc(OC3CCN(CC(=O)N4C[C@@H](F)C[C@H]4C#N)CC3)c2c1 [Example 410, (2S,4S)-4-fluoro-1-[2-[4-[(6-methyl-4-quinolyl)oxy]-1-piperidyl]acetyl]pyrrolidine-2-carbonitrile] | 10.7 | > 10 | 3170 nM |

More lines, now with the values ahead:

| IC50 (recombinant human DPP8) [µM] | IC50 (DPP4) [µM] | IC50 (recombinant human PREP) | Structure (SMILES) |
| --- | --- | --- | --- |
| 3.57 | 0.792 | 3470 nM | COc1ccc(N[C@H]2CCN(CC(=O)N3C[C@@H](F)C[C@H]3C#N)C2)c2cccnc12 [Example 263, (2S,4S)-4-fluoro-1-[2-[(3S)-3-[(8-methoxy-5-quinolyl)amino]pyrrolidin-1-yl]acetyl]pyrrolidine-2-carbonitrile] |
| > 10 | 1.31 | 3170 nM | N#C[C@@H]1C[C@H](F)CN1C(=O)CN1CC[C@H](Nc2ccc(OC(F)(F)F)c3ncccc23)C1 [Example 266, (2S,4S)-4-fluoro-1-[2-[(3S)-3-[[8-(trifluoromethoxy)-5-quinolyl]amino]pyrrolidin-1-yl]acetyl]pyrrolidine-2-carbonitrile] |
| 2.62 | 2.66 | 4580 nM | N#C[C@@H]1C[C@H](F)CN1C(=O)CN1CCC(Nc2ccc(OC(F)(F)F)c3ncccc23)CC1 [Example 347, (2S,4S)-4-fluoro-1-[2-[4-[[8-(trifluoromethoxy)-5-quinolyl]amino]-1-piperidyl]acetyl]pyrrolidine-2-carbonitrile] |
| 2.44 | 3.6 | 10000 nM | COc1cnc2cccc(NC3CCN(CC(=O)N4C[C@@H](F)C[C@H]4C#N)CC3)c2c1 [Example 348, (2S,4S)-4-fluoro-1-[2-[4-[(3-methoxy-5-quinolyl)amino]-1-piperidyl]acetyl]pyrrolidine-2-carbonitrile] |
| 2.9 | 1.89 | 5200 nM | N#C[C@@H]1C[C@H](F)CN1C(=O)CN1CCC(Nc2cccc3ncc(F)cc23)CC1 [Example 349, (2S,4S)-4-fluoro-1-[2-[4-[(3-fluoro-5-quinolyl)amino]-1-piperidyl]acetyl]pyrrolidine-2-carbonitrile] |
| > 10 | > 10 | 10700 nM | N#C[C@@H]1C[C@H](F)CN1C(=O)CN1CCC(Nc2cccc3cnc(Cl)cc23)CC1 [Example 352, (2S,4S)-1-[2-[4-[(3-chloro-5-isoquinolyl)amino]-1-piperidyl]acetyl]-4-fluoro-pyrrolidine-2-carbonitrile] |
| > 100 | 5.25 | 14200 nM | COc1cc2c(NC3CCN(CC(=O)N4C[C@@H](F)C[C@H]4C#N)CC3)cccc2cn1 [Example 355, (2S,4S)-4-fluoro-1-[2-[4-[(3-methoxy-5-isoquinolyl)amino]-1-piperidyl]acetyl]pyrrolidine-2-carbonitrile] |

Reference: patent publication US11655235B2, “Pyrrolidine and piperidine compounds” (YUHAN CORPORATION, priority 2019, dated 2023)
